The values that follow come from patent publication US20240024307A1, “PHARMACEUTICAL COMBINATION OF A CORTICOSTEROID AND AN ANTIHISTAMINE FOR THE TREATMENT AND CONTROL OF THE INFLAMMATORY COMPONENT OF ALLERGIC PROCESSES” (priority 2020, published 2024).

A short description of data set [1]: Comparative bioavailability study, 5 mg desloratadine and 0.25 mg betamethasone alone or in combination, single dose, healthy subjects, fasting. To be noted: analyte desloratadine, 5 mg single dose. The text has this:
The study design was crossover, 3×6×3 open, prospective, and longitudinal, truncated to single dose.
Three treatments, three periods, six sequences with an elimination period of 14 days and with a total of 24 healthy subjects of both genders, in fasting conditions.

For data set [2] the following is noted: 40° C. and 75% RH; alone or in combination with various excipients; cited from earlier work.

With `Clc1ccc2c(c1)CCc1cccnc1C2=C1CCNCC1` [Desloratadine, desloratadine], in data set [1], the “Elimination constant Ke” value amounted to 0.0408 ± 0.009 h⁻¹. Moreover, the colour stability result in data set [2] is recorded as “exhibits color changes”.
